# Laboratory results: US20220305012A1, “L[…] TREATING SLEEP ISSUES” (EISAI R&D MANAGEMENT CO., LTD., priority 2019, published 2022)
# What was measured:
# Assay type in all cases: in vivo, human
# [1] = system: Subjects Having Insomnia Disorder; experiment: Example 1: subjective sleep efficiency (sSE), Sleep Diary
# Excerpt: As used herein, the term “subjective sleep efficiency”, abbreviated as “sSE”, means the proportion of sTST per subjective time spent in bed, calculated as the interval from the time the subject reports attempting to sleep until the time the subject stopped trying to sleep for the night (operationalized as the time the subject got out of bed for the day), and time spent asleep derived from subjective time spent in bed minus sWASO. As used herein, an “improvement of sleep efficiency in Subjective Sleep Efficiency (sSE)” means an increase in sleep efficiency in Subjective Sleep Efficiency (sSE).
# (§1) In some embodiments, sleep diaries were used to assess sleep parameters reported by subjects (i.e., subjective assessments) including subjective sleep onset latency (sSOL), subjective sleep efficiency (sSE), subjective WASO (sWASO), and subjective total sleep time (sTST). Subjects were instructed to complete the Sleep Diary developed based on the consensus Sleep Diary as described in Carney et al., “The consensus sleep diary: standardizing prospective sleep self-monitoring,” Sleep 2012; 35(2):287-302. In some embodiments, the Sleep Diary was used to assess the subject's global perception of quality of sleep on the previous night with the following question: “How would you rate the quality of your sleep last night?” Subjects rated the quality of their sleep on a scale from 1 to 9, with 1 being extremely poor and 9 being extremely good. In some embodiments, the Sleep Diary was used to assess subjective ratings of morning sleepiness with the following question: “How alert/sleepy do you feel this morning?” Subjects rated their sleepiness/alertness level on a Likert scale from 1 to 9, with 1 being extremely sleepy and 9 being extremely alert.
# sSE—subjective sleep efficiency: proportion of sTST per subjective time spent in bed, calculated as the interval from the time the subject reports attempting to sleep until the time the subject stopped trying to sleep for the night (operationalized as the time the subject got out of bed for the day), and time spent asleep derived from subjective time in bed minus sWASO.
# (§2) Subjects were randomized in a double-blind manner and received either placebo, 5 mg of lemborexant, or 10 mg of lemborexant (approximately 1:1:1 randomization). All subjects underwent routine safety monitoring through the study, including assessments of treatment-emergent adverse events, 12-lead electrocardiograms, vital signs, weight, and clinical hematology and blood chemistry labs. Suicidality was assessed using the eC-SSRS.
# (§3) Treatment period 1 began with the first dose of randomized study medication (placebo, 5 mg of lemborexant, or 10 mg of lemborexant). Subjects completed sleep diaries daily in the morning, within one hour of waketime. The subjects were assessed by a clinician one month, two months, three months, and six months after initiation of Treatment period 1. The following assessments were conducted:
# (§4) This study had two key secondary endpoints. The first key secondary endpoint was the mean change from study baseline in subjective sleep efficiency at month 6. The second key secondary endpoint was the mean change from study baseline of subjective wake after sleep onset at month 6.
# [2] = system: Subjects Having Insomnia Disorder; experiment: Example 1: subjective wake after sleep onset (sWASO), Sleep Diary
# Excerpt: As used herein, the term “subjective wake after sleep onset”, abbreviated as “sWASO”, means the sum of estimated minutes of wake during the night after initial sleep onset until the time the subject stopped trying to sleep for the night, operationalized as the time the subject got out of bed for the day. In some embodiments, sWASO is derived from data entered in a subject's Sleep Diary. As used herein, an “improvement of sWASO” means a reduction in sWASO.
# as §1
# sWASO—subjective wake after sleep onset: sum of estimated minutes of wake during the night after initial sleep onset until the time the subject stopped trying to sleep for the night, operationalized as the time the subject got out of bed for the day.
# as §2, §3, §4
# [3] = system: Subjects Having Insomnia Disorder; experiment: Example 2: duration of long awakenings; settings: both doses; relative to placebo, compared with zolpidem ER (FIG. 12)
# [4] = 5 mg, change from Study Baseline after 1 Month
# [5] = 5 mg, change from Study Baseline after 3 Months
# [6] = 5 mg, change from Study Baseline after 6 Months
# [7] = 5 mg, change from Study Baseline after 7 Nights
# [8] = 10 mg, change from Study Baseline after 1 Month
# [9] = 10 mg, change from Study Baseline after 3 Months
# [10] = 10 mg, change from Study Baseline after 6 Months
# [11] = 10 mg, change from Study Baseline after 7 Nights
compound,measurement,setting,value
"Cc1ncc(OC[C@@]2(c3cccc(F)c3)C[C@H]2C(=O)Nc2ccc(F)cn2)c(C)n1 [Lemborexant, (1R,2S)-2-(((2,4-dimethylpyrimidin-5-yl)oxy)methyl)-2-(3-fluorophenyl)-N-(5-fluoropyridin-2-yl)cyclopropanecarboxamide]",subjective sleep efficiency compared with placebo,"[1]; 5 mg and 10 mg, at the equivalent timepoint (Table 3)",greater increase in subjective sleep efficiency than subjects treated with placebo
same,"sSE, Mean","[1]; 5 mg, First 7 Nights",69.97%
same,"sSE, Median","[1]; 5 mg, First 7 Nights",74.62%
same,"sSE, Mean","[1]; 5 mg, Month 1",71.56%
same,"sSE, Median","[1]; 5 mg, Month 1",76.35%
same,"sSE, Mean","[1]; 5 mg, Month 3",77.29%
same,"sSE, Median","[1]; 5 mg, Month 3",81.32%
same,"sSE, Mean","[1]; 5 mg, Month 6",78.55%
same,"sSE, Median","[1]; 5 mg, Month 6",82.02%
same,"sSE, Mean","[1]; 5 mg, Study Baseline",63.14%
same,"sSE, Median","[1]; 5 mg, Study Baseline",67.00%
same,"sSE Change from Study Baseline, Mean","[1]; 5 mg, after 1 Month",7.87%
same,"sSE Change from Study Baseline, Median","[1]; 5 mg, after 1 Month",6.75%
same,"sSE Change from Study Baseline, Mean","[1]; 5 mg, after 3 Months",13.03%
same,"sSE Change from Study Baseline, Median","[1]; 5 mg, after 3 Months",11.63%
same,"sSE Change from Study Baseline, Mean","[1]; 5 mg, after 6 Months",15.34%
same,"sSE Change from Study Baseline, Median","[1]; 5 mg, after 6 Months",13.33%
same,"sSE Change from Study Baseline, Mean","[1]; 5 mg, after 7 Nights",6.61%
same,"sSE Change from Study Baseline, Median","[1]; 5 mg, after 7 Nights",5.45%
same,sSE LSM treatment difference: Lemborexant-Placebo,[1]; [4],2.227%
same,sSE LSM treatment difference: Lemborexant-Placebo,[1]; [5],4.222%
same,sSE LSM treatment difference: Lemborexant-Placebo,[1]; [6],4.549%
same,sSE LSM treatment difference: Lemborexant-Placebo,[1]; [7],4.299%
same,"sSE, Mean","[1]; 10 mg, First 7 Nights",69.96%
same,"sSE, Median","[1]; 10 mg, First 7 Nights",71.85%
same,"sSE, Mean","[1]; 10 mg, Month 1",71.04%
same,"sSE, Median","[1]; 10 mg, Month 1",74.70%
same,"sSE, Mean","[1]; 10 mg, Month 3",75.15%
same,"sSE, Median","[1]; 10 mg, Month 3",78.30%
same,"sSE, Mean","[1]; 10 mg, Month 6",76.53%
same,"sSE, Median","[1]; 10 mg, Month 6",80.22%
same,"sSE, Mean","[1]; 10 mg, Study Baseline",62.03%
same,"sSE, Median","[1]; 10 mg, Study Baseline",65.05%
same,"sSE Change from Study Baseline, Mean","[1]; 10 mg, after 1 Month",9.92%
same,"sSE Change from Study Baseline, Median","[1]; 10 mg, after 1 Month",9.00%
same,"sSE Change from Study Baseline, Mean","[1]; 10 mg, after 3 Months",13.61%
same,"sSE Change from Study Baseline, Median","[1]; 10 mg, after 3 Months",12.62%
same,"sSE Change from Study Baseline, Mean","[1]; 10 mg, after 6 Months",15.55%
same,"sSE Change from Study Baseline, Median","[1]; 10 mg, after 6 Months",13.91%
same,"sSE Change from Study Baseline, Mean","[1]; 10 mg, after 7 Nights",8.27%
same,"sSE Change from Study Baseline, Median","[1]; 10 mg, after 7 Nights",7.17%
same,sSE LSM treatment difference: Lemborexant-Placebo,[1]; [8],3.615%
same,sSE LSM treatment difference: Lemborexant-Placebo,[1]; [9],4.361%
same,sSE LSM treatment difference: Lemborexant-Placebo,[1]; [10],4.667%
same,sSE LSM treatment difference: Lemborexant-Placebo,[1]; [11],5.793%
same,subjective wake after sleep onset compared with placebo,"[2]; 5 mg and 10 mg, at the equivalent timepoint (Table 4)",greater reduction in mean subjective wake after sleep onset than subjects treated with placebo
same,"sWASO, Mean","[2]; 5 mg, First 7 Nights",113.53 min
same,"sWASO, Median","[2]; 5 mg, First 7 Nights",87.86 min
same,"sWASO, Mean","[2]; 5 mg, Month 1",107.07 min
same,"sWASO, Median","[2]; 5 mg, Month 1",85.29 min
same,"sWASO, Mean","[2]; 5 mg, Month 3",89.48 min
same,"sWASO, Median","[2]; 5 mg, Month 3",66.43 min
same,"sWASO, Mean","[2]; 5 mg, Month 6",81.79 min
same,"sWASO, Median","[2]; 5 mg, Month 6",60.00 min
same,"sWASO, Mean","[2]; 5 mg, Study Baseline",132.77 min
same,"sWASO, Median","[2]; 5 mg, Study Baseline",114.71 min
same,"sWASO Change from Study Baseline, Mean","[2]; 5 mg, after 1 Month",-23.42 min
same,"sWASO Change from Study Baseline, Median","[2]; 5 mg, after 1 Month",-19.29 min
same,"sWASO Change from Study Baseline, Mean","[2]; 5 mg, after 3 Months",-42.98 min
same,"sWASO Change from Study Baseline, Median","[2]; 5 mg, after 3 Months",-34.57 min
same,"sWASO Change from Study Baseline, Mean","[2]; 5 mg, after 6 Months",-51.45 min
same,"sWASO Change from Study Baseline, Median","[2]; 5 mg, after 6 Months",-44.02 min
same,"sWASO Change from Study Baseline, Mean","[2]; 5 mg, after 7 Nights",-20.21 min
same,"sWASO Change from Study Baseline, Median","[2]; 5 mg, after 7 Nights",-16.01 min
same,sWASO LSM treatment difference: Lemborexant/Placebo,[2]; [4],-5.514 min
same,sWASO LSM treatment difference: Lemborexant/Placebo,[2]; [5],-13.424 min
same,sWASO LSM treatment difference: Lemborexant/Placebo,[2]; [6],-17.474 min
same,sWASO LSM treatment difference: Lemborexant/Placebo,[2]; [7],-14.328 min
same,"sWASO, Mean","[2]; 10 mg, First 7 Nights",113.77 min
same,"sWASO, Median","[2]; 10 mg, First 7 Nights",92.29 min
same,"sWASO, Mean","[2]; 10 mg, Month 1",109.42 min
same,"sWASO, Median","[2]; 10 mg, Month 1",95.00 min
same,"sWASO, Mean","[2]; 10 mg, Month 3",95.66 min
same,"sWASO, Median","[2]; 10 mg, Month 3",70.00 min
same,"sWASO, Mean","[2]; 10 mg, Month 6",86.38 min
same,"sWASO, Median","[2]; 10 mg, Month 6",62.14 min
same,"sWASO, Mean","[2]; 10 mg, Study Baseline",136.83 min
same,"sWASO, Median","[2]; 10 mg, Study Baseline",120.57 min
same,"sWASO Change from Study Baseline, Mean","[2]; 10 mg, after 1 Month",-26.82 min
same,"sWASO Change from Study Baseline, Median","[2]; 10 mg, after 1 Month",-22.29 min
same,"sWASO Change from Study Baseline, Mean","[2]; 10 mg, after 3 Months",-39.42 min
same,"sWASO Change from Study Baseline, Median","[2]; 10 mg, after 3 Months",-36.07 min
same,"sWASO Change from Study Baseline, Mean","[2]; 10 mg, after 6 Months",-48.12 min
same,"sWASO Change from Study Baseline, Median","[2]; 10 mg, after 6 Months",-47.43 min
same,"sWASO Change from Study Baseline, Mean","[2]; 10 mg, after 7 Nights",-23.30 min
same,"sWASO Change from Study Baseline, Median","[2]; 10 mg, after 7 Nights",-20.71 min
same,sWASO LSM treatment difference: Lemborexant/Placebo,[2]; [8],-7.005 min
same,sWASO LSM treatment difference: Lemborexant/Placebo,[2]; [9],-10.079 min
same,sWASO LSM treatment difference: Lemborexant/Placebo,[2]; [10],-12.671 min
same,sWASO LSM treatment difference: Lemborexant/Placebo,[2]; [11],-16.720 min
same,length of long awakenings,[3],greater reduction in the length of long awakenings than treatment with zolpidem ER
